In patent publication US20050256132A1, “Use of ER selective NF-kB inhibitors for the treatment of sepsis” (priority 2003, published 2005):
Values joined by “and” are separate entries in the source; they are usually repeats but may differ in a detail not shown here. Equal values may be shown once.

Columns and labels:
[1] = test system: Creatine Kinase; assay: Creatine kinase expression in Ad5-wt-ERα infected HAECT-1 cells (Table 1); assay type: cell-based, human; conditions: relative to the maximal stimulation observed with E2
Protocol: (§1) T-175 flasks of 100% confluent HAECT-1 cells (immortalized human aortic endothelial cells) were washed with 8 mL of HBSS (HEPES buffered saline solution) and infected for four hours with 6 mL of a 1:10 dilution of Ad5-wt-hERα virus (an adenovirus transfection vector that mediates CMV promoter driven expression of human ERα) in phenol red free Endothelial Cell Basal medium (Clonetics, San Diego Calif., Catalog # CC-3129) containing 0.25% bovine serum albumin (EBM-BSA). After four hours, cells were washed with EBM-BSA and incubated overnight in the same medium. Following overnight incubation, cells were washed with EBM-BSA and infected for 2 hours with 6 mL of a 1:10 dilution of Ad5-3x(NF-κB).Luc virus (Adenovirus luciferase expression vector driven by 3 repeats of the MHC NF-κb site 5′ to the thymidine kinase promoter) in EBM-BSA. […]
(§2) ERα infected HAECT-1 cells or control cells were thawed, diluted 42× in warm EBM-BSA, plated into 96-well plates at 0.1 mL/well and incubated for 4 hours at 34° C. […] Luciferase was determined on a Wallac Victor Luminometer (Gaithersburg, Md.) using 10 μL of lysate and mixing with 100 μL of Promega Luciferase Assay reagent. Creatine kinase was determined from the rate of increase in A340 following addition of 100 μL of CK assay reagent (Sigma, cat. No 47-10) to the remainder of the cell lysate. […]

[2] = test system: ER/NF-κB; assay: ER/NF-κB luciferase reporter in Ad5-wt-ERα infected HAECT-1 cells (Table 1); assay type: cell-based, human; conditions: relative to the maximal inhibition observed with E2
Protocol: as §1, §2

[3] = test system: NF-κB; assay: IL-1β stimulated NF-κB reporter activity in ERα expressing HAECT-1 cells; assay type: cell-based, human; conditions: ERα expressing HAECT-1 cells, FIG. 1A
Protocol: (§3) HAECT-1 cells (Chadwick C C, et al., Proc Natl Acad Sciences, 2005, 102(7): 2543-2548) were cultured in EGM (GIBCO, Rockville, Md.) containing 10% FBS, 1% GlutaMAX and 0.1% Antimycotic-Antibiotic in Falcon T-175 culture flasks at 34° C. in 5% CO2 and infected for four hours with Ad5-wt-ER virus. After overnight recovery, the cells were infected for 2 hours with the Ad5-3x(NFκB).Luc or Ad5-IL6.Luc virus. Compound 67 and 2 ng/ml IL-1 were added to the cells for 15-20 h and the cell lysate was assayed for luciferase activity and evaluated for CK expression (Stanbio Laboratories, Texas). The values are reported as mean±SEM with n=4 from at least 3 independent experiments.

[4] = test system: CK; assay: CK activity in lysate of ERα expressing HAECT-1 cells; assay type: cell-based, human
Protocol: (A) The effect of compound 67 on NF-κB mediated luciferase reporter activity in HAECT-1 cells expressing ERα. […] (C) The effect of compound 67 on the human IL-6 promoter luciferase reporter activity in HAECT-1 cells expressing either ERα (squares) or ERβ (diamonds). (D) The remaining lysate from (A) was used to determine CK activity.
as §3

[5] = test system: IL-6; assay: IL-6 expression (ELISA) in Ad5-wt-ERα infected HAECT-1 cells (Table 1); assay type: cell-based, human
[6] = test system: Pseudomonas aeruginosa 12.4.4; assay: Neutropenic rat model of Pseudomonas sepsis; assay type: in vivo, Sprague-Dawley rats
Protocol: The neutropenic rat model of pseudomonas sepsis has been previously described (Opal S M, et al., Shock 15(4):285-290, 2001). The experiments were conducted in specific pathogen-free female, Albino, Sprague-Dawley rats (Charles River Breeding Laboratories, Wilmington, Mass.) weighing 150-200 grams at the beginning of the experiments. Animals were treated with cefamandole (100 mg/kg intramuscularly daily) followed by oral colonization with Pseudomonas aeruginosa 12.4.4 (immunotype 6, A. McManus, San Antonio, Tex.) by orogastric feeding of 10^6 bacterial colony forming units at time 0, 48, and 96 hours.
Cyclophosphamide (Bristol-Myers, Evansville, Ind.) was given intraperitoneally at a dose of 150 mg/kg at time 0, and 50 mg/kg interperitoneally at 72 hours. Animals were followed daily with clinical examination of body temperature using a non-contact, digital, infrared thermometer (Horiba Instruments-Marksen Sciences, Phoenix, Ariz.) and body weight. Compound 67 (50 mg/kg) or corn oil control (n=12 in both groups) was administered orally by orogastric feeding beginning on day 4 after the first dose of cyclophosphamide and continuing for 8 days for the survival study. In an additional set of experiments, compound 1 (50 mg/kg) or control (n=8 in both groups) was administered every other day (day 4, 6, 8) and animals were sacrificed at day 8 for histopathologic studies. The distal 10 centimeters of ileum were resected and used for histopathological examination. The lumen was washed with phosphate buffered saline to remove residual particulate material prior to analysis and fixation. The mucosal surface epithelium was sampled for electromicroscopic studies and placed in gluteraldehyde fixative at the time of sacrifice. A 10 mm segment of ileal tissue was utilized for mucosal mass measurement.
Animals were assessed clinically and pathologically by daily body weight, body temperature, presence of bacteremia, circulating endotoxin levels, and pathologic evidence of damage to the gastrointestinal epithelium and liver by light microscopy and electron microscopy. The investigators performing the animal experiments were not blinded to the treatment assignment; however, an independent pathologist who was unaware of the treatment assignment for each animal performed the light microscopy and electron microscopy interpretation. A pathological injury scale of 0-4 was used to assess the degree of mucosal thinning, ulceration, and disruption.

COc1ccccc1[C@H](c1cccc2ccccc12)[C@@](C)(C#N)C(=O)N1CCC(c2cccc(C(F)(F)F)c2)CC1 [Example 67, (S,S)-3-(2-methoxyphenyl)-2-methyl-3-(1-naphthyl)-2-({4-[3-(trifluoromethyl)phenyl]piperidin-1-yl}carbonyl)propanenitrile]
Creatine Kinase Efficacy [1]: 41% and 58% | ER/NFκB Efficacy [2]: 100% and 86% and 90% and 92% | efficacy compared with E2, NF-κB reporter [3]: 94% | IC50 ([3]; Homo sapiens, HAECT1): 122 nM | elevation of CK activity ([4]; at 1 μM): approximately 20% | stimulation of CK expression ([4]; compared with E2, FIG. 1D): did not stimulate CK expression comparable to E2 | IC50 ([5]; Homo sapiens, HAECT1, Ad5-wt-ERα infected HAECT-1 cells, IL-1 stimulated, read-out: Interleukin-6 IC50): 35 nM | Interleukin-6 Efficacy ([5]; relative to the maximal inhibition observed with E2): 45% | electron microscopy of small intestinal enterocyte architecture, tight junctions, organelle structure ([6]; 50 mg/kg): greater preservation | prevention of lethality (Kaplan-Meier survival) ([6]; 50 mg/kg orally daily from day 4, FIG. 2): highly effective in the prevention of lethality | small bowel mucosal mass ([6]; 50 mg/kg, p<0.01 vs control, FIG. 4B): 76±21 mg/10 cm segment | levels of bacteremia and endotoxemia ([6]; day 6 after first cyclophosphamide dose, FIG. 3): Reduced levels | histopathologic injury score of gastrointestinal mucosa ([6]; scale 0-4, 50 mg/kg, day 8, p=0.02 vs control, FIG. 4A): 0.6±0.1
